Measurements: US10301304B2, “Selective inhibitor of phosphatidylinositol 3-kinase-gamma” (VERTEX PHARMACEUTICALS INCORPORATED, priority 2013, dated 2019)
Where two headings read alike, the source gives them in different places.

Tests used:
CYP2B6 = CYP2B6 (Homo sapiens, UniProt P20813); assay: Metabolism by Recombinant CYP Enzymes; type: in vitro ADME; details: 1 μM, recombinant CYP2B6, NADPH
Protocol: (§1) Microsomes that contained recombinant CYP enzymes (CYP1A2, 2B6, 2C8, 2C9, 2C19, 2D6, 2E1 and 3A4) were used to determine which CYP catalyzes the oxidation of Compound 1. Accordingly, Compound 1 (1 μM) was incubated with individual recombinant CYPs in the presence of the cofactor NADPH. The percent parent drug remaining at the end of the incubation period was determined by LC-MS/MS and compared to that present at the beginning.

CYP2C19 = CYP2C19 (Homo sapiens, UniProt P33261); assay: Metabolism by Recombinant CYP Enzymes; type: in vitro ADME; details: 1 μM, recombinant CYP2C19, NADPH
Protocol: as §1

CYP2C8 = CYP2C8 (Homo sapiens, UniProt P10632); assay: Metabolism by Recombinant CYP Enzymes; type: in vitro ADME; details: 1 μM, recombinant CYP2C8, NADPH
Protocol: as §1

CYP2D6 = CYP2D6 (Homo sapiens, UniProt P10635); assay: Metabolism by Recombinant CYP Enzymes; type: in vitro ADME; details: 1 μM, recombinant CYP2D6, NADPH
Protocol: as §1

[1] = Permeability in MDCK wild-type cell line; type: in vitro ADME, canine; details: dog, MDCK-WT
Protocol: (§2) The permeability of Compound 1 was evaluated using both Caco-2 and MadinDarby canine kidney (MDCK) wild-type cell lines. Cells were exposed to drug in buffer on the apical side (measuring permeability in the A-to-B direction) or basolateral side (measuring permeability in the B-to-A direction) and incubated at 37° C. for one hour. Permeability was high in the A-to-B direction in both the MDCK and Caco-2 cell lines (33 and 18×10^−6 cm/sec, respectively).

MDCK-WT = assay: Permeability in MDCK wild-type cell line; type: in vitro ADME, canine; details: 1 μM, A > B
Protocol: as §2

[2] = Tissue Distribution in Rats; type: in vivo, rat; details: 5 mg/kg oral; for Kp at 0.5 h / Kp at 2 h / Kp at 7 h / Kp at 24 h / Kp at 48 h / Kp at 0.5 hr / Kp at 2 hr / Kp at 7 hr / Kp at 24 hr / Kp at 48 hr: male
Protocol: Compound 1 distributed well into most tissues after an oral dose of 5 mg/kg administered to male rats. […] The tissue to plasma ratio followed the trend of liver>kidney>heart>lung>spleen>brain>CSF. The elimination kinetics of Compound 1 in each examined organ followed plasma kinetics. There was no evidence for tissue accumulation of Compound 1 after a single dose administration.

CYP3A4 = CYP3A4 (Homo sapiens, UniProt P08684); assay: Time-dependent inhibition of CYP3A4, IC50 shift assay; type: in vitro ADME; parameters: evaluated in human liver microsomes using the IC50 shift assay; from tissue; host or cells: human liver microsomes; details: CYP3A4, preincubation 0 and 30 minutes with/without NADPH, human liver microsomes
Protocol: Time-dependent inhibition of CYP3A4 by Compound 1 also was evaluated in human liver microsomes using the IC50 shift assay. In the study, Compound 1 at 0.1 to 50 μM was preincubated with human liver microsomes in the presence and absence of NADPH for 0 and 30 minutes. Incubations were then diluted 10-fold with buffer and the remaining CYP3A4 (testosterone-6-beta-hydroxylase) activity was measured over a 10 minute period. There was no significant change (IC50 shift=1) in the IC50 of Compound 1 in the presence or absence of NADPH.

CYP2C8, sequence (P10632 whole entry): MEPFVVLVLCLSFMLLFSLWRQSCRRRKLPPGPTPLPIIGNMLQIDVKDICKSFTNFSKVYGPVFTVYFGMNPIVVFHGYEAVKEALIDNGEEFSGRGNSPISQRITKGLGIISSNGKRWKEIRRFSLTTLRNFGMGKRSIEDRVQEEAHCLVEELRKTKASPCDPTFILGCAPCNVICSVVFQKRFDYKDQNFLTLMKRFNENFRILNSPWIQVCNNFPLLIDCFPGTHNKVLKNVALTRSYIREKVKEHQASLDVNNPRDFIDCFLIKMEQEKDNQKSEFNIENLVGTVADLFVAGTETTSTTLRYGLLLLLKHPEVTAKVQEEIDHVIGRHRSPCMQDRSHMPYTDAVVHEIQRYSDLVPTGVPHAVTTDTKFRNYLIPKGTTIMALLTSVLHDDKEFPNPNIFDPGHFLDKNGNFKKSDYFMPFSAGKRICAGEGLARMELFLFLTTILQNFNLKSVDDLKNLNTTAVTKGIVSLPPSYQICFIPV
CYP2B6, sequence (P20813 whole entry): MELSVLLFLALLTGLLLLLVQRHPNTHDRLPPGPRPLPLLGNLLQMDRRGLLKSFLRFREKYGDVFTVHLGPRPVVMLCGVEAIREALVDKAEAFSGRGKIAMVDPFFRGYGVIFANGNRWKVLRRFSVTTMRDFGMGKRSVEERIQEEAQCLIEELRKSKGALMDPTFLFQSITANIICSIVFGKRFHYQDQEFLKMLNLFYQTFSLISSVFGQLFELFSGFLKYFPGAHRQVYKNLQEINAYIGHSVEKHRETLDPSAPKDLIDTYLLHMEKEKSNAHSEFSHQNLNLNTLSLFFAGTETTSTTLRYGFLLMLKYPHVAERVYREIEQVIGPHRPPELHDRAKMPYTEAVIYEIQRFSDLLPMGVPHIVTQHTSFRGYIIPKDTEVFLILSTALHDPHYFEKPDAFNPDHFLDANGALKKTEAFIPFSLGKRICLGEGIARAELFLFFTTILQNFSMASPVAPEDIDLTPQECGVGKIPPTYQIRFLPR
CYP3A4, sequence (P08684 whole entry): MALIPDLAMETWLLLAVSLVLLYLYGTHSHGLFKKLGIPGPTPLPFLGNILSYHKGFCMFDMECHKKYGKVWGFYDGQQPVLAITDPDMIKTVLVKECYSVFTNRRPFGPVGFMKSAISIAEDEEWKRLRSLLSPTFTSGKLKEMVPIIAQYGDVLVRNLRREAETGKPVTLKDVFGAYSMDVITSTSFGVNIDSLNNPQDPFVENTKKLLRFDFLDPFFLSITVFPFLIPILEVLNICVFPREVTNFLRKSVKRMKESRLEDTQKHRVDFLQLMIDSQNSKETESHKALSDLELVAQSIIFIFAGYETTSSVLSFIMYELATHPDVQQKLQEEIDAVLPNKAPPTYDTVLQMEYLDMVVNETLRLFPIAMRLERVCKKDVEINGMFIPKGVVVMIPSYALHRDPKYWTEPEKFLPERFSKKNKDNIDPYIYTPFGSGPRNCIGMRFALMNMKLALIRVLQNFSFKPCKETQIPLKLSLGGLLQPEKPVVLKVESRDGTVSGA
CYP2C19, sequence (P33261 whole entry): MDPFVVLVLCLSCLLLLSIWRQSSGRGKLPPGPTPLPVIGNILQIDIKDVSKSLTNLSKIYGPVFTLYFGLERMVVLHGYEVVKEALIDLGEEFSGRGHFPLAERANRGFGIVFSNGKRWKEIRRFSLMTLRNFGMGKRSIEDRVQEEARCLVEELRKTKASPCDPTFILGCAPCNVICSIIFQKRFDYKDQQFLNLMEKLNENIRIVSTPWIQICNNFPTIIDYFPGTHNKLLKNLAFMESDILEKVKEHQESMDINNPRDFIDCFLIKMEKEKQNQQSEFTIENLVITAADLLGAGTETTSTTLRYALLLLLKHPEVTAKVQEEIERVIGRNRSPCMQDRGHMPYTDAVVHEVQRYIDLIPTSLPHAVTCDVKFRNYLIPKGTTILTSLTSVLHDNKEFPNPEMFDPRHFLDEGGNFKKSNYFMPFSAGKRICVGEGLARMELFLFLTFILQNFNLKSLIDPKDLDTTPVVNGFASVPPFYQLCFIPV
CYP2D6, sequence (P10635 whole entry): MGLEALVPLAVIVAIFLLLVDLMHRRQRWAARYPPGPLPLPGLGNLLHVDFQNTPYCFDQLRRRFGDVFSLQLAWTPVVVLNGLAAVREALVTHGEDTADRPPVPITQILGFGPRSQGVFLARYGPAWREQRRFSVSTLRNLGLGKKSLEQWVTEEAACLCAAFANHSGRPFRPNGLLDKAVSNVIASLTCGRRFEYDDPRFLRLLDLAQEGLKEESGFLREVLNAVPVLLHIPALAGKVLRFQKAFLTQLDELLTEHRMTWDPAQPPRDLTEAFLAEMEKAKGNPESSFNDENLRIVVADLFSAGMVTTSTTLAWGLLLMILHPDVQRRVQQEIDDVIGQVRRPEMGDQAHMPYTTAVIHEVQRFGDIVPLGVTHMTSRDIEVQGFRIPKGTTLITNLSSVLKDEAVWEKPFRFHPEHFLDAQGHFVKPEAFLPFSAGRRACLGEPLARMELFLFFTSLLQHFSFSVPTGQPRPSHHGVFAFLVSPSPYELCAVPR

Cc1cc(-c2cncc([C@@H](O)C(F)(F)F)c2)nc2c1C(=O)N(c1cnn(CC(F)F)c1)C2(C)C [Compound 1, (R)-6-(1-(2,2-difluoroethyl)-1H-pyrazol-4-yl)-4,7,7-trimethyl-2-(5-(2,2,2-trifluoro-1-hydroxyethyl)pyridin-3-yl)-6,7-dihydro-5H-pyrrolo[3,4-b]pyridin-5-one]
% Parent Remaining @ 30 min (CYP2B6): 107%
% Parent Remaining @ 30 min (CYP2C19): 118%
% Parent Remaining @ 30 min (CYP2C8): 105%
% Parent Remaining @ 30 min (CYP2D6): 100%
Papp A→B at 1 h, 1 μM ([1]; MDCK, A > B): 33 ×10⁻⁶ cm/s
recovery at 1 h, 1 μM ([1]; MDCK, A > B): 90%
recovery at 1 h, 1 μM ([1]; MDCK, B > A): 93%
efflux ratio at 1 h, 1 μM [1]: 1.4
Papp B→A at 1 h, 1 μM ([1]; B > A): 23.8 ×10⁻⁶ cm/s
Avg. Papp (MDCK-WT): 17.55 ×10⁻⁶ cm/s
Cmax, brain ([2]; male rats): 111 ng/g
Cmax, kidney ([2]; male rats): 4770 ng/g
Cmax, liver ([2]; male rats): 11400 ng/g
tissue to plasma ratio trend ([2]; male rats, in words): liver>kidney>heart>lung>spleen>brain>CSF
Kp at 0.5 h ([2]; CSF (relative to plasma), rat, 0.5 hr post dose, read-out: Tissue to Plasma Ratio, CSF): 0.01
Kp at 2 h ([2]; CSF (relative to plasma), rat, 2 hr post dose, read-out: Tissue to Plasma Ratio, CSF): 0.01
Kp at 7 h ([2]; CSF (relative to plasma), rat, 7 hr post dose, read-out: Tissue to Plasma Ratio, CSF): 0.01
Kp at 24 h ([2]; CSF (relative to plasma), rat, 24 hr post dose, read-out: Tissue to Plasma Ratio, CSF): 0.01
Kp at 7 h ([2]; brain (relative to plasma), rat, 7 hr post dose, read-out: Tissue to Plasma Ratio, Brain): 0.05
Kp at 24 h ([2]; brain (relative to plasma), rat, 24 hr post dose, read-out: Tissue to Plasma Ratio, Brain): 0.06
Kp at 0.5 h ([2]; brain, rat, 0.5 hr post dose, read-out: Tissue to Plasma Ratio, Brain): 0.04
Kp at 2 h ([2]; brain, rat, 2 hr post dose, read-out: Tissue to Plasma Ratio, Brain): 0.07
Kp at 48 h ([2]; brain, rat, 48 hr post dose, read-out: Tissue to Plasma Ratio, Brain): 0.07
Kp at 0.5 hr ([2]; heart, rat, 0.5 hr post dose, read-out: Tissue to Plasma Ratio, Heart): 0.98
Kp at 2 hr ([2]; heart, rat, 2 hr post dose, read-out: Tissue to Plasma Ratio, Heart): 1.67
Kp at 7 hr ([2]; heart, rat, 7 hr post dose, read-out: Tissue to Plasma Ratio, Heart): 1.4
Kp at 24 hr ([2]; heart, rat, 24 hr post dose, read-out: Tissue to Plasma Ratio, Heart): 1.46
Kp at 48 hr ([2]; heart, rat, 48 hr post dose, read-out: Tissue to Plasma Ratio, Heart): 1.39
Kp at 0.5 hr ([2]; kidney, rat, 0.5 hr post dose, read-out: Tissue to Plasma Ratio, Kidney): 1.75
Kp at 2 hr ([2]; kidney, rat, 2 hr post dose, read-out: Tissue to Plasma Ratio, Kidney): 2.54
Kp at 7 hr ([2]; kidney, rat, 7 hr post dose, read-out: Tissue to Plasma Ratio, Kidney): 2.16
Kp at 24 hr ([2]; kidney, rat, 24 hr post dose, read-out: Tissue to Plasma Ratio, Kidney): 3.03
Kp at 48 hr ([2]; kidney, rat, 48 hr post dose, read-out: Tissue to Plasma Ratio, Kidney): 4.76
Kp at 0.5 h ([2]; liver, rat, 0.5 hr post dose, read-out: Tissue to Plasma Ratio, Liver): 4.96
Kp at 2 h ([2]; liver, rat, 2 hr post dose, read-out: Tissue to Plasma Ratio, Liver): 6.99
Kp at 7 h ([2]; liver, rat, 7 hr post dose, read-out: Tissue to Plasma Ratio, Liver): 5.13
Kp at 24 h ([2]; liver, rat, 24 hr post dose, read-out: Tissue to Plasma Ratio, Liver): 5.69
Kp at 48 hr ([2]; liver, rat, 48 hr post dose, read-out: Tissue to Plasma Ratio, Liver): 5.32
Kp at 0.5 h ([2]; lung, rat, 0.5 hr post dose, read-out: Tissue to Plasma Ratio, Lung): 1.24
Kp at 2 h ([2]; lung, rat, 2 hr post dose, read-out: Tissue to Plasma Ratio, Lung): 1.38
Kp at 7 h ([2]; lung, rat, 7 hr post dose, read-out: Tissue to Plasma Ratio, Lung): 1.22
Kp at 24 h ([2]; lung, rat, 24 hr post dose, read-out: Tissue to Plasma Ratio, Lung): 1.17
Kp at 48 h ([2]; lung, rat, 48 hr post dose, read-out: Tissue to Plasma Ratio, Lung): 1.31
Kp at 0.5 h ([2]; spleen, rat, 0.5 hr post dose, read-out: Tissue to Plasma Ratio, Spleen): 0.74
Kp at 2 h ([2]; spleen, rat, 2 hr post dose, read-out: Tissue to Plasma Ratio, Spleen): 1.15
Kp at 7 h ([2]; spleen, rat, 7 hr post dose, read-out: Tissue to Plasma Ratio, Spleen): 0.81
Kp at 24 h ([2]; spleen, rat, 24 hr post dose, read-out: Tissue to Plasma Ratio, Spleen): 0.93
Kp at 48 h ([2]; spleen, rat, 48 hr post dose, read-out: Tissue to Plasma Ratio, Spleen): 0.88
Compound 1 Concentration, Brain ([2]; rat, 0.5 hr post dose): 74 ng/ml or ng/g
Compound 1 Concentration, CSF ([2]; rat, 0.5 hr post dose): 20 ng/ml or ng/g
Compound 1 Concentration, Heart ([2]; rat, 0.5 hr post dose): 1730 ng/ml or ng/g
Compound 1 Concentration, Kidney ([2]; rat, 0.5 hr post dose): 3070 ng/ml or ng/g
Compound 1 Concentration, Liver ([2]; rat, 0.5 hr post dose): 8710 ng/ml or ng/g
Compound 1 Concentration, Lung ([2]; rat, 0.5 hr post dose): 2180 ng/ml or ng/g
Compound 1 Concentration, Plasma ([2]; rat, 0.5 hr post dose): 1760 ng/ml or ng/g
Compound 1 Concentration, Spleen ([2]; rat, 0.5 hr post dose): 1290 ng/ml or ng/g
Compound 1 Concentration, Brain ([2]; rat, 2 hr post dose): 129 ng/ml or ng/g
Compound 1 Concentration, CSF ([2]; rat, 2 hr post dose): 23.3 ng/ml or ng/g
Compound 1 Concentration, Heart ([2]; rat, 2 hr post dose): 3280 ng/ml or ng/g
Compound 1 Concentration, Kidney ([2]; rat, 2 hr post dose): 4980 ng/ml or ng/g
Compound 1 Concentration, Liver ([2]; rat, 2 hr post dose): 13700 ng/ml or ng/g
Compound 1 Concentration, Lung ([2]; rat, 2 hr post dose): 2710 ng/ml or ng/g
Compound 1 Concentration, Plasma ([2]; rat, 2 hr post dose): 1960 ng/ml or ng/g
Compound 1 Concentration, Spleen ([2]; rat, 2 hr post dose): 1790 ng/ml or ng/g
Compound 1 Concentration, Brain ([2]; rat, 7 hr post dose): 111 ng/ml or ng/g
Compound 1 Concentration, CSF ([2]; rat, 7 hr post dose): 27 ng/ml or ng/g
Compound 1 Concentration, Heart ([2]; rat, 7 hr post dose): 3100 ng/ml or ng/g
Compound 1 Concentration, Kidney ([2]; rat, 7 hr post dose): 4770 ng/ml or ng/g
Compound 1 Concentration, Liver ([2]; rat, 7 hr post dose): 11400 ng/ml or ng/g
Compound 1 Concentration, Lung ([2]; rat, 7 hr post dose): 2700 ng/ml or ng/g
Compound 1 Concentration, Plasma ([2]; rat, 7 hr post dose): 2210 ng/ml or ng/g
Compound 1 Concentration, Spleen ([2]; rat, 7 hr post dose): 491 ng/ml or ng/g
Compound 1 Concentration, Brain ([2]; rat, 24 hr post dose): 30 ng/ml or ng/g
Compound 1 Concentration, CSF ([2]; rat, 24 hr post dose): 5 ng/ml or ng/g
Compound 1 Concentration, Heart ([2]; rat, 24 hr post dose): 771 ng/ml or ng/g
Compound 1 Concentration, Kidney ([2]; rat, 24 hr post dose): 1600 ng/ml or ng/g
Compound 1 Concentration, Liver ([2]; rat, 24 hr post dose): 3010 ng/ml or ng/g
Compound 1 Concentration, Lung ([2]; rat, 24 hr post dose): 617 ng/ml or ng/g
Compound 1 Concentration, Plasma ([2]; rat, 24 hr post dose): 592 ng/ml or ng/g
Compound 1 Concentration, Spleen ([2]; rat, 24 hr post dose): 125 ng/ml or ng/g
Compound 1 Concentration, Brain ([2]; rat, 48 hr post dose): 9.35 ng/ml or ng/g
Compound 1 Concentration, CSF ([2]; rat, 48 hr post dose): BQL
Compound 1 Concentration, Heart ([2]; rat, 48 hr post dose): 196 ng/ml or ng/g
Compound 1 Concentration, Kidney ([2]; rat, 48 hr post dose): 673 ng/ml or ng/g
Compound 1 Concentration, Liver ([2]; rat, 48 hr post dose): 750 ng/ml or ng/g
Compound 1 Concentration, Lung ([2]; rat, 48 hr post dose): 185 ng/ml or ng/g
Compound 1 Concentration, Plasma ([2]; rat, 48 hr post dose): 141 ng/ml or ng/g
Compound 1 Concentration, Spleen ([2]; rat, 48 hr post dose): BQL
Tissue to Plasma Ratio, CSF ([2]; rat, 48 hr post dose): BQL
Kp ([2]; rat, brain and CSF, relative to plasma, male rats, read-out: brain and CSF exposure, % of the plasma exposure): < 0.001
Cmax ([2]; rat, cerebrospinal fluid (CSF), male rats): 27 ng/mL
IC50 shift (CYP3A4): 1
